Earlier results in patent publication US8846730B2, “Compounds as cannabinoid receptor ligands” (priority 2008, dated 2014).

Assays:
atherosclerotic lesions = conditions: low doses, apolipoprotein E knockout mice; cited from earlier work
[1] = tested on: ovariectomy-induced bone loss; conditions: mice, model for post-menopausal osteoporosis; cited from earlier work

Substance | effect on progression of atherosclerotic lesions (atherosclerotic lesions) | effect on osteoclast activity and bone loss [1]
(−)-Δ^9-Tetrahydrocannabinol [THC] | slowed the progression of atherosclerotic lesions | 
SR144528 |  | inhibit osteoclast activity and reverse ovariectomy-induced bone loss
